Structures can show the parent of a compound that is named as a salt.
Key:
[1] = target: T1, smDAC (S. mutans diadenylate cyclase, CdaA/DacA family) (Streptococcus mutans, UniProt Q8DTC4); assay: biochemical; set-up: HPLC quantification of conversion of ATP into c-di-AMP by recombinant smDAC; settings: read-out: Normalized Enzymatic Inhibition (%)
T1 construct: recombinant smDAC (from 116aa to 265aa)
Procedure: Eleven “hits” were validated using HPLC to eliminate false positives from the coralyne assay. […] (+)-Brazilin (NSC 8661), showing the greatest inhibitory activity, was further studied in a dose-dependent manner. Representative chromatograms of ATP (100 µM) and c-di-AMP (50 µM) standards were used as references to validate retention times (Fig. 3A and B). […] Representative chromatograms of HPLC reactions treated with dose-dependent concentrations were also obtained (Fig. S5). Excitingly, (+)-brazilin inhibited the conversion of ATP into c-di-AMP in a dose-dependent manner with an IC50 value of 25.1 ± 0.98 µM (Fig. 3H; Table S1). […] HPLC was also used to evaluate and compare bromophenol thiohydantoin, suramin, and tannic acid, all reported tmDisA inhibitors, to brazilin and 10% DMSO negative control.

[2] = target: T1, smDAC (S. mutans diadenylate cyclase, CdaA/DacA family); assay: intrinsic tyrosine fluorescence quenching (modified Stern-Volmer); supported by HPLC enzyme inhibition, IC50 […], Ki […]; type: binding
[3] = tested on: Nc1ncnc2c1ncn2[C@@H]1O[C@H](COP(=O)(O)OP(=O)(O)OP(=O)(O)O)[C@@H](O)[C@H]1O; assay: purified protein; settings: Mn2+ substrate-binding site

T1 sequence (Q8DTC4 entry or part of it): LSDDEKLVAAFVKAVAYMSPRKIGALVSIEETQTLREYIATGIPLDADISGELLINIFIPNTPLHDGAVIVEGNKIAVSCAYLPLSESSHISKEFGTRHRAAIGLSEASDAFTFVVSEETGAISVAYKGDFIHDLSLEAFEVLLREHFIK

Work on `Cc1ccc(C(=O)Nc2ccc(S(=O)(=O)O)c3cc(S(=O)(=O)O)cc(S(=O)(=O)O)c23)cc1NC(=O)c1cccc(NC(=O)Nc2cccc(C(=O)Nc3cc(C(=O)Nc4ccc(S(=O)(=O)O)c5cc(S(=O)(=O)O)cc(S(=O)(=O)O)c45)ccc3C)c2)c1` [suramin hexasodium salt] yielded an inhibition at 50 µM [1] of 1.2%.

With `O=C(OC[C@H]1O[C@@H](OC(=O)c2cc(O)c(O)c(OC(=O)c3cc(O)c(O)c(O)c3)c2)[C@H](OC(=O)c2cc(O)c(O)c(OC(=O)c3cc(O)c(O)c(O)c3)c2)[C@@H](OC(=O)c2cc(O)c(O)c(OC(=O)c3cc(O)c(O)c(O)c3)c2)[C@@H]1OC(=O)c1cc(O)c(O)c(OC(=O)c2cc(O)c(O)c(O)c2)c1)c1cc(O)c(O)c(OC(=O)c2cc(O)c(O)c(O)c2)c1` [tannic acid] the inhibition at 50 µM [1] was 22.2%.

For `Oc1ccc2c(c1)OC[C@]1(O)Cc3cc(O)c(O)cc3[C@H]21` [NSC 8661, (+)-brazilin], the inhibition at 50 µM [1] was 77.8%, the inhibition at 100 µM [1] was 87.1% and the Kd [2] was 11.9 µM.

Work on `O=C1NC(=S)N/C1=C\c1cc(Br)cc(Br)c1O` [bromophenol thiohydantoin] yielded an inhibition at 50 µM [1] of 3.7%.

Work on “smDAC (S. mutans diadenylate cyclase, CdaA/DacA family) (Streptococcus mutans UA159)” yielded a Km [3] of 93.0 ± 3.98 µM and a Vmax [3] of 5.54 µM/min.

Reference: publication PMC11064632, “Tetracyclic homoisoflavanoid (+)-brazilin: a natural product inhibits c-di-AMP-producing enzyme and Streptococcus mutans biofilms” (Microbiology Spectrum, 2024)
